Data on seven compounds can be found in ChEMBL document CHEMBL2429826, “Design, synthesis, and evaluation of prodrugs of ertapenem” (ACS Med Chem Lett, 2013).

Series [1] concerns Canis familiaris. Briefly: Bioavailability in Beagle dog assessed as ertapenem at 10 mg/kg, ID administered as infusion. Type of series: ADME, organism-based, Canis lupus familiaris. As to conditions: in vivo, other; call rule not given here.
In series [2] the test system is Canis familiaris. Briefly: AUC (0 to 8 hrs) in Beagle dog assessed as ertapenem at 10 mg/kg, ID administered as infusion. Type of series: ADME, organism-based, Canis lupus familiaris, Plasma. Also on record: time < 8 hr, dose 10 mg/kg, route intraduodenal. As to conditions: in vivo, other.
The nature of series [3]: Metabolic stability in monkey plasma assessed as compound remaining at 50 uM after 60 mins by LC-MS/MS analysis. Type of series: ADME, cell-free, Macaca mulatta. As to conditions: rhesus monkey, read-out: Stability.
The nature of series [4]: Metabolic stability in dog plasma assessed as compound remaining at 50 uM after 60 mins by LC-MS/MS analysis. As to conditions: read-out: Stability. Format: ADME, cell-free, Canis lupus familiaris.
The nature of series [5]: Metabolic stability in human plasma assessed as compound remaining at 50 uM after 60 mins by LC-MS/MS analysis. Format: ADME, cell-free. Conditions: read-out: Stability.
The nature of series [6]: Metabolic stability in rat plasma assessed as compound remaining at 50 uM after 60 mins by LC-MS/MS analysis. Type of series: ADME, cell-free. As to conditions: read-out: Stability.
Series [7] can be described thus: AUC (0 to 8 hrs) in Beagle dog at 1 mg/kg, iv. Type of series: ADME, organism-based, Canis lupus familiaris. On the set-up: time < 8 hr, dose 1 mg/kg, route intravenous. As to conditions: plasma.
The nature of series [8]: Oral bioavailability in Sprague-Dawley rat at 10 mg/kg. Format: ADME, organism-based. Conditions: in vivo.
The nature of series [9]: AUC (0 to 8 hrs) in Sprague-Dawley rat at 10 mg/kg, po. Type of series: ADME, organism-based. On the set-up: time < 8 hr, dose 10 mg/kg, route oral. Conditions: plasma.
Series [10] in a line: AUC (0 to 8 hrs) in Sprague-Dawley rat at 1 mg/kg, iv. On the set-up: time < 8 hr, dose 1 mg/kg, route intravenous. Conditions: plasma. Format: ADME, organism-based.
Series [11] can be described thus: AUC (0 to 8 hrs) in Sprague-Dawley rat at 10 mg/kg, ID administered as infusion. Format: ADME, organism-based. Also on record: time < 8 hr, dose 10 mg/kg, route intraduodenal. Conditions: plasma.
Series [12] in a line: Apparent permeability of the compound in pig LLC-PK1 cells.
In series [13] the test system is Canis familiaris. Briefly: AUC (0 to 8 hrs) in Beagle dog assessed as (4R,5S,6S)-3-((3S,5S)-5-(3-(ethoxycarbonyl)phenylcarbamoyl)pyrrolidin-3-ylthio)-6-((R)-1-hydroxyethyl)-4-methyl-7-oxo-1-azabicyclo[3.2.0]hept-2-ene-2-carboxylic acid at 10 mg/kg, ID administered as infusion. As to conditions: in vivo, other. Type of series: ADME, organism-based, Canis lupus familiaris, Plasma. On the set-up: time < 8 hr, dose 10 mg/kg, route intraduodenal.

In series [14] the test system is Canis familiaris. Briefly: AUC (0 to 8 hrs) in Beagle dog assessed as 3-((2S,4S)-4-((4R,5S,6S)-2-(ethoxycarbonyl)-6-((R)-1-hydroxyethyl)-4-methyl-7-oxo-1-azabicyclo[3.2.0]hept-2-en-3-ylthio)pyrrolidine-2-carboxamido)benzoic acid at 10 mg/kg, ID administered as infusion. Type of series: ADME, organism-based, Canis lupus familiaris, Plasma. Also on record: time < 8 hr, dose 10 mg/kg, route intraduodenal. As to conditions: in vivo, other.

The test system of series [15] is Rattus norvegicus. Briefly: Bioavailability in Sprague-Dawley rat assessed as ertapenem at 10 mg/kg, ID administered as infusion. Type of series: ADME, organism-based. As to conditions: in vivo, other.
Series [16] has as its system Rattus norvegicus. Briefly: AUC (0 to 8 hrs) in Sprague-Dawley rat assessed as (4R,5S,6S)-3-((3S,5S)-5-(3-(ethoxycarbonyl)phenylcarbamoyl)pyrrolidin-3-ylthio)-6-((R)-1-hydroxyethyl)-4-methyl-7-oxo-1-azabicyclo[3.2.0]hept-2-ene-2-carboxylic acid at 10 mg/kg, ID administered as infusion. Type of series: ADME, organism-based, Plasma. On the set-up: time < 8 hr, dose 10 mg/kg, route intraduodenal. As to conditions: in vivo, other, BLD = below limit of detection.

Series [17] deals with Rattus norvegicus. Briefly: AUC (0 to 8 hrs) in Sprague-Dawley rat assessed as 3-((2S,4S)-4-((4R,5S,6S)-2-(ethoxycarbonyl)-6-((R)-1-hydroxyethyl)-4-methyl-7-oxo-1-azabicyclo[3.2.0]hept-2-en-3-ylthio)pyrrolidine-2-carboxamido)benzoic acid at 10 mg/kg, ID administered as infusion. Type of series: ADME, organism-based, Plasma. On the set-up: time < 8 hr, dose 10 mg/kg, route intraduodenal. As to conditions: in vivo, other, BLD = below limit of detection.

Series [18] deals with Rattus norvegicus. Briefly: AUC (0 to 8 hrs) in Sprague-Dawley rat assessed as ertapenem at 10 mg/kg, ID administered as infusion. Format: ADME, organism-based, Plasma. On the set-up: time < 8 hr, dose 10 mg/kg, route intraduodenal. As to conditions: in vivo, other.
The nature of series [19]: Drug metabolism in monkey hepatocytes assessed as tebipenem level after 15 mins. Type of series: ADME, cell-based, Macaca mulatta, Hepatocyte. Conditions: rhesus monkey, 0.25 h.
Series [20] can be described thus: Drug metabolism in dog hepatocytes assessed as tebipenem level after 15 mins. Format: ADME, cell-based, Canis lupus familiaris, Hepatocyte. Conditions: 0.25 h.
Series [21] deals with Hepatocyte. Briefly: Drug metabolism in human hepatocytes assessed as tebipenem level after 15 mins. Format: ADME, cell-based. As to conditions: 0.25 h.
The subject of series [22] is Hepatocyte. Briefly: Drug metabolism in rat hepatocytes assessed as tebipenem level after 15 mins. Format: ADME, cell-based. Conditions: 0.25 h.
Series [23] is described as follows: Drug metabolism in monkey liver microsomes assessed as tebipenem level after 15 mins. Type of series: ADME, Macaca mulatta, Microsome. Conditions: rhesus monkey, 0.25 h.
Series [24] can be described thus: Drug metabolism in dog liver microsomes assessed as tebipenem level after 15 mins. Format: ADME, Canis lupus familiaris, Microsome. Conditions: 0.25 h. In general terms: Liver microsomes are vesicles of endoplasmic reticulum, rich in cytochrome P450 enzymes.
The subject of series [25] is Liver microsomes. Briefly: Drug metabolism in human liver microsomes assessed as tebipenem level after 15 mins. Conditions: 0.25 h. Format: ADME, Microsome.
For series [26], the system named is Liver microsomes. Briefly: Drug metabolism in rat liver microsomes assessed as tebipenem level after 15 mins. Type of series: ADME, Microsome. Conditions: 0.25 h.
The subject of series [27] is Rattus norvegicus. Briefly: Bioavailability in Sprague-Dawley rat assessed as ertapenem at 4.4 mg/kg, ID administered as infusion. Type of series: ADME, organism-based. As to conditions: in vivo, other.
Series [28] has as its system Rattus norvegicus. Briefly: AUC (0 to 8 hrs) in Sprague-Dawley rat assessed as (4R,5S,6S)-3-((3S,5S)-5-(3-(ethoxycarbonyl)phenylcarbamoyl)pyrrolidin-3-ylthio)-6-((R)-1-hydroxyethyl)-4-methyl-7-oxo-1-azabicyclo[3.2.0]hept-2-ene-2-carboxylic acid at 4.4 mg/kg, ID administered as infusion. Format: ADME, organism-based, Plasma. On the set-up: time < 8 hr, dose 4.4 mg/kg, route intraduodenal. Conditions: in vivo, other.

In series [29] the test system is Rattus norvegicus. Briefly: AUC (0 to 8 hrs) in Sprague-Dawley rat assessed as 3-((2S,4S)-4-((4R,5S,6S)-2-(ethoxycarbonyl)-6-((R)-1-hydroxyethyl)-4-methyl-7-oxo-1-azabicyclo[3.2.0]hept-2-en-3-ylthio)pyrrolidine-2-carboxamido)benzoic acid at 4.4 mg/kg, ID administered as infusion. Format: ADME, organism-based, Plasma. On the set-up: time < 8 hr, dose 4.4 mg/kg, route intraduodenal. Conditions: in vivo, other.

The subject of series [30] is Rattus norvegicus. Briefly: AUC (0 to 8 hrs) in Sprague-Dawley rat assessed as ertapenem at 4.4 mg/kg, ID administered as infusion. As to conditions: in vivo, other. Format: ADME, organism-based, Plasma. On the set-up: time < 8 hr, dose 4.4 mg/kg, route intraduodenal.

`C[C@@H](O)[C@H]1C(=O)N2C3=C(S[C@@H]4CN[C@@H](C4)C(=O)Nc4cccc(c4)C(=O)OCCCOC3=O)[C@H](C)[C@H]12`: the F in [1] is on record as 0.53%. Moreover, the exposure (AUC) (in general, concentration integrated over time) in [2] turned out to be 0.44 µM·h. Also, the remaining at 1 h, 50 µM in series [3] came to 49%; in series [4], 79%; in series [5] it was 17%; in [6], 0%.
With `C[C@@H](O)[C@H]1C(=O)N2C(C(=O)O)=C(S[C@@H]3CN[C@H](C(=O)Nc4cccc(C(=O)O)c4)C3)[C@H](C)[C@H]12`, the AUC(0-t) (commonly exposure summed from dosing to a finite time, without extrapolation to infinity) at 8 h in series [7] turned out to be 8.9 µM·h; in [9], 0.39 µM·h; in series [10], 7.84 µM·h; in [11], 0.48 µM·h. The bioavailability (commonly the share of a dose that reaches the circulation, judged against a reference dose that is usually intravenous) in [8] amounted to 0.53%. Besides, the apparent permeability (Papp) (commonly the rate of passage across a membrane or cell layer, normalised by area and donor concentration) in series [12] came to 0.5 ×10⁻⁶ cm/s.
`C[C@@H](O)[C@H]1C(=O)N2C(C(=O)OCOC(=O)C(C)(C)C)=C(S[C@@H]3CN[C@H](C(=O)Nc4cccc(C(=O)OCOC(=O)C(C)(C)C)c4)C3)[C@H](C)[C@H]12`: the F in [1] came out at 3%; in series [15], 0.37%. Moreover, the AUC result in [13] (BLD = below limit of detection) was “BLD”; in [14], 0.04 µM·h; in series [2] it was 1.81 µM·h; in [16] it was “BLD”; in series [17], “BLD”; in series [18], 0.2 µM·h. The remaining at 1 h, 50 µM came out at 37% in series [4], 36% in series [5] and 2% in series [6].
Turning to `Cc1oc(=O)oc1COC(=O)C1=C(S[C@@H]2CN[C@H](C(=O)Nc3cccc(C(=O)OCc4oc(=O)oc4C)c3)C2)[C@H](C)[C@@H]2[C@@H]([C@@H](C)O)C(=O)N12`, the F in series [15] was 0.77%. The area under the curve (AUC) in series [18] turned out to be 0.3 µM·h. Further, the remaining at 1 h, 50 µM was 2% in [3], 3% in [4], 1% in series [5] and 1% in series [6].
For the compound `C[C@@H](O)[C@H]1C(=O)N2C(C(=O)OCOC(=O)C(C)(C)C)=C(SC3CN(C4=NCCS4)C3)[C@H](C)[C@H]12` [TEBIPENEM PIVOXIL], the Drug metabolism entry in series [19], in [20], in [21], in [22], in [23] and in series [24] was “Active” in each case. Besides, the Drug metabolism entry in [25] and in series [26] was “Active” in each case. Further, the remaining at 1 h, 50 µM in [3] came out at 0%; in series [4], 25%; in [5], 0%; in [6], 0%.
With `CCOC(=O)C1=C(S[C@@H]2CN[C@H](C(=O)Nc3cccc(C(=O)OCC)c3)C2)[C@H](C)[C@@H]2[C@@H]([C@@H](C)O)C(=O)N12`, the F in series [1] is 18.1%; in [27], 4.98%. The exposure (AUC) in series [13] stood at 3.34 µM·h; in series [14] it was 2.17 µM·h; in series [2], 14.3 µM·h; in [28], 0.42 µM·h; in series [29] it was 0.07 µM·h; in [30], 1.54 µM·h. The Papp in series [12] was 13 ×10⁻⁶ cm/s. In addition, the remaining at 1 h, 50 µM in [3] turned out to be 77%; in series [4] it was 75%; in series [5] it was 5%; in [6], 0%.
Turning to `C[C@@H](O)[C@H]1C(=O)N2C(C(=O)O)=C(SC3CN(C4=NCCS4)C3)[C@H](C)[C@H]12` [TEBIPENEM], the Papp in series [12] came to 0.7 ×10⁻⁶ cm/s.
